Test results published in US11932601B2, “Immunoregulatory agents” (FLEXUS BIOSCIENCES, INC., priority 2014, dated 2024).

Target: T1, human IDO1 (Homo sapiens, UniProt P14902)
T1 construct: expressed in transfected cells
Experiment: HEK293 cells stably expressing human IDO1, IDO inhibition assay (kynurenine, Ehrlich reagent, absorbance 490 nm)
Format: cell-based
Settings: 20 hours incubation, 500 nM reference standard = 100% inhibition, read-out: HEK Human IDO-1 Biological Activity (IC50)
Experimental: HEK293 cells were transfected with a pCDNA-based mammalian expression vector harboring human IDO1 cDNA (NM 002164.2) by electroporation. They were cultured in medium (DMEM with 10% FBS) containing 1 mg/ml G418 for two weeks. Clones of HEK293 cells that stably expressed human IDO1 protein were selected and expanded for IDO inhibition assay.
The human IDO1/HEK293 cells were seeded at 10,000 cells per 50 μL per well with RPMI/phenol red free media contains 10% FBS in a 384-well black wall clear bottom tissue culture plate (Matrix Technologies LLC) 100 nL of certain concentration of compound was then added to each well using ECHO liquid handling systems. The cells were incubated for 20 hours in 37° C. incubator with 5% CO2.
The compound treatments were stopped by adding Trichloroacetic Acid (Sigma-Aldrich) to a final concentration at 0.2%. The cell plate was further incubated at 50° C. for 30 minute. The equal volume supernatant […] and 0.2% (w/v) Ehrlich reagent (4-dimethylaminobenzaldehyde, Sigma-Aldrich) in glacial acetic acid were mixed in a new clear bottom 384-well plate. This plate was then incubated at room temperature for 30 minute. The absorbance at 490 nm was measured on Envision plate reader.

T1 sequence (P14902 whole entry): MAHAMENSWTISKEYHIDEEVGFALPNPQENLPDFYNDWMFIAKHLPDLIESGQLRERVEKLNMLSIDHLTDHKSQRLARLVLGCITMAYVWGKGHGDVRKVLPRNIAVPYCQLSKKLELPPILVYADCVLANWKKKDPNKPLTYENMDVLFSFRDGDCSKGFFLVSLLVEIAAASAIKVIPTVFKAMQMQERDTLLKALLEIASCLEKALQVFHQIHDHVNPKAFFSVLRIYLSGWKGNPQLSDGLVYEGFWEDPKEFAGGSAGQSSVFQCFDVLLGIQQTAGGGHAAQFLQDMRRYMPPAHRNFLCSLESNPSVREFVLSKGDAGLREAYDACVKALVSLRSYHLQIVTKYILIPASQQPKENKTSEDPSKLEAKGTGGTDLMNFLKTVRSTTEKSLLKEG

SMILES | IC50
CCC(C(=O)Nc1ccc(Cl)cc1)[C@H]1CC[C@H](Oc2ccncc2C(F)(F)F)CC1 (mixture of isomers) [Example 305, N-(4-Chlorophenyl)-2-(trans-4-((3-(trifluoromethyl)pyridin-4-yl)oxy)cyclohexyl)butanamide] | > 0.25 µM
CCC(C(=O)Nc1ccc(Cl)cc1)[C@H]1CC[C@H](Oc2ccncc2C(F)(F)F)CC1 (single isomer, unassigned) [Example 305a, N-(4-Chlorophenyl)-2-((1r,4r)-4-((3-(trifluoromethyl)pyridin-4-yl)oxy)cyclohexyl)-2λ^3-butanamide] | > 0.25 µM
CCC(C(=O)Nc1ccc(Cl)cc1)[C@H]1CC[C@@H](Oc2ccncc2)CC1 (single isomer, unassigned) [Example 306b, N-(4-Chlorophenyl)-2-(cis-4-(pyridin-4-yloxy)cyclohexyl)butanamide] | > 0.25 µM
COc1cc([C@H]2CC[C@@H]([C@H](C)C(=O)Nc3ccc(Cl)cc3)CC2)ccn1 (single isomer, unassigned) [Example 307e, N-(4-Chlorophenyl)-2-(4-(2-methoxypyridin-4-yl)cyclohexyl)propanamide] | < 0.25 µM
Cc1cc(C2CCC(C(C)C(=O)Nc3ccc(Cl)cc3)CC2)cc(C)n1 (single isomer, unassigned) [Example 308a, N-(4-chlorophenyl)-2-(4-(2,6-dimethylpyridin-4-yl)cyclohexyl) propanamide] | < 0.25 µM
Cc1cc(C2CCC(C(C)C(=O)Nc3ccc(Cl)cc3)CC2)cc(C)n1 (single isomer, unassigned) [Example 308c, N-(4-chlorophenyl)-2-(4-(2,6-dimethylpyridin-4-yl)cyclohexyl) propanamide] | > 0.25 µM

Continued, values first:

IC50 | SMILES
< 0.05 µM | CCC(C(=O)Nc1ccc(Cl)cc1)[C@H]1CC[C@@H](Oc2ccncc2)CC1 (mixture of isomers) [Example 306, N-(4-Chlorophenyl)-2-(cis-4-(pyridin-4-yloxy)cyclohexyl)butanamide]
< 0.05 µM | CC(C(=O)Nc1ccc(Cl)cc1)[C@H]1CC[C@H](Oc2ccnc(C(F)(F)F)c2)CC1 (mixture of isomers) [Example 323, (+/−)-N-(4-chlorophenyl)-2-(trans-4-((2-(trifluoromethyl)pyridin-4-yl)oxy)cyclohexyl) propanamide]
< 0.05 µM | CCC(C(=O)Nc1ccc(Cl)cc1)[C@H]1CC[C@H](Oc2ccncc2C(F)(F)F)CC1 (single isomer, unassigned) [Example 305b, N-(4-Chlorophenyl)-2-((1r,4r)-4-((3-(trifluoromethyl)pyridin-4-yl)oxy)cyclohexyl)-2λ^3-butanamide]
< 0.05 µM | CCC(C(=O)Nc1ccc(Cl)cc1)[C@H]1CC[C@@H](Oc2ccncc2)CC1 (single isomer, unassigned) [Example 306a, N-(4-Chlorophenyl)-2-(cis-4-(pyridin-4-yloxy)cyclohexyl)butanamide]
< 0.05 µM | COc1cc([C@H]2CC[C@@H]([C@H](C)C(=O)Nc3ccc(Cl)cc3)CC2)ccn1 (single isomer, unassigned) [Example 307c, N-(4-Chlorophenyl)-2-(4-(2-methoxypyridin-4-yl)cyclohexyl)propanamide]
< 0.05 µM | COc1cc([C@H]2CC[C@@H]([C@H](C)C(=O)Nc3ccc(Cl)cc3)CC2)ccn1 (single isomer, unassigned) [Example 307d, N-(4-Chlorophenyl)-2-(4-(2-methoxypyridin-4-yl)cyclohexyl)propanamide]
< 0.05 µM | COc1cc([C@H]2CC[C@@H]([C@H](C)C(=O)Nc3ccc(Cl)cc3)CC2)ccn1 (single isomer, unassigned) [Example 307f, N-(4-Chlorophenyl)-2-(4-(2-methoxypyridin-4-yl)cyclohexyl)propanamide]
< 0.05 µM | Cc1cc(C2CCC(C(C)C(=O)Nc3ccc(Cl)cc3)CC2)cc(C)n1 (single isomer, unassigned) [Example 308b, N-(4-chlorophenyl)-2-(4-(2,6-dimethylpyridin-4-yl)cyclohexyl) propanamide]
